# Assay results taken from the supplement of paper PMC10307832.
# Assays:
# Assay in all cases: relative viability (nuclei count vs DMSO), 5 days (fraction); higher = more cells survive
# [1] = compound: C1CSC2=C(C(=O)N1)SC3=C2C=C(C=C3)O [kb NB 142-70] + CC(=O)c1c(C)c2cnc(Nc3ccc(N4CCNCC4)cn3)nc2n(C2CCCC2)c1=O [Palbociclib] (partner 0.5 µM)
# How it was run: (§1)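 Lung cancer cell lines were seeded in 1536-well plates and dosed by pin tool the next day, with either a single drug or a fixed anchor-drug dose combined with five library-drug doses (not always all listed) spaced in √10 steps. Five days later, one step fixed the cells and stained their nuclei (final 0.05% Triton X-100, 1% formaldehyde, 1 ug/ml Hoechst), and nuclei were counted on 4× images. Relative viability is the nuclei count in treated wells divided by the count in vehicle wells, and each value is the median of duplicate plates.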
# kb NB 142-70 + Dasatinib = compound: C1CSC2=C(C(=O)N1)SC3=C2C=C(C=C3)O [kb NB 142-70] + Cc1nc(Nc2ncc(C(=O)Nc3c(C)cccc3Cl)s2)cc(N2CCN(CCO)CC2)n1 [Dasatinib] (partner 0.075 µM)
# How it was run: as §1
# [2] = compound: NCC(=O)Nc1ccc(-n2nc(C(F)(F)F)cc2-c2ccc3c(ccc4ccccc43)c2)cc1 + CC(C)C[C@H](NC(=O)[C@H](Cc1ccccc1)NC(=O)c1cnccn1)B(O)O [Bortezomib] (partner 0.002 µM)
# How it was run: as §1
# [3] = compound: NCC(=O)Nc1ccc(-n2nc(C(F)(F)F)cc2-c2ccc3c(ccc4ccccc43)c2)cc1 + Cc1nc(NC(=O)N2CCC[C@H]2C(N)=O)sc1-c1ccnc(C(C)(C)C(F)(F)F)c1 [Alpelisib] (partner 2 µM)
# How it was run: as §1
cell line,measurement,setting,value
UMC-11,relative viability,[1]; first compound 0.1 µM,0.322
same,relative viability,[1]; first compound 1 µM,0.344
same,relative viability,[1]; first compound 3.162 µM,0.324
same,relative viability,kb NB 142-70 + Dasatinib; first compound 0.1 µM,0.438
same,relative viability,kb NB 142-70 + Dasatinib; first compound 1 µM,0.464
same,relative viability,kb NB 142-70 + Dasatinib; first compound 3.162 µM,0.318
same,relative viability,[2]; first compound 0.02 µM,0.831
same,relative viability,[2]; first compound 0.06325 µM,0.762
same,relative viability,[2]; first compound 0.2 µM,0.693
same,relative viability,[2]; first compound 0.6325 µM,0.658
same,relative viability,[2]; first compound 2 µM,0.674
same,relative viability,[3]; first compound 0.02 µM,0.985
same,relative viability,[3]; first compound 0.06325 µM,0.968
same,relative viability,[3]; first compound 0.2 µM,1.03
same,relative viability,[3]; first compound 0.6325 µM,0.958
same,relative viability,[3]; first compound 2 µM,1.1
